Results: patent US11903936B2, “Anti-malarial agents” (THE BOARD OF REGENTS OF THE UNIVERSITY OF TEXAS SYSTEM, priority 2019, dated 2024)
Values after ≈ are worked out from the molar mass of the structure shown. Like-named read-outs stand apart in the source and are kept apart here.

Key:
Human DHODH = Human DHODH (Homo sapiens (Human), UniProt Q02127); experiment: DHODH kinetic analysis (DCIP assay); format: biochemical; settings: 25° C.
Description: (§1) DHODH Kinetic Analysis. […] Inhibitor stocks (100 mM) were prepared in DMSO in amber bottles. A 3-fold dilution series was generated in DMSO from these stocks and then dispensed into assay buffer via a 1/100 dilution to generate a final concentration range of 0.001-100 μM (1% DMSO final). Data were collected using triplicate technical replicates and where indicated additional biological replicates were collected (the number of biological replicates is provided in parenthesis). IC50's were determined by fitting the data to log (inhibitor) vs. response equation Y=Bottom+(Top−Bottom)/(1+10^((X−Log IC50))) in GraphPad Prism.

in vitro = settings: human
Rat DHODH = Rat DHODH (Rattus norvegicus (Rat), UniProt Q63707); experiment: DHODH kinetic analysis (DCIP assay); format: biochemical; settings: 25° C.
Rat DHODH, sequence (Q63707 whole entry): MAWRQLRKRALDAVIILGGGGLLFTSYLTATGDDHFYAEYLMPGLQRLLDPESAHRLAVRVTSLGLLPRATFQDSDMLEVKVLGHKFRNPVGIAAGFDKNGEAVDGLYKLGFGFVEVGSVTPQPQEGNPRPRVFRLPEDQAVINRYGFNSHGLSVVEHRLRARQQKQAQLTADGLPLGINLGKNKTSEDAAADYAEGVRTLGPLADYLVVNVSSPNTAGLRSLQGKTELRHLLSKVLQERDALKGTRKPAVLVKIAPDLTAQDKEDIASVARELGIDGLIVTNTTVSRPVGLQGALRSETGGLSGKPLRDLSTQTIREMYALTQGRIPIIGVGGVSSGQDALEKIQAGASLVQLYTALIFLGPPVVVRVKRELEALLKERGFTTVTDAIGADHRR
Description: as §1

Mouse DHODH = Mouse DHODH (Mus musculus (Mouse), UniProt O35435); experiment: DHODH kinetic analysis (DCIP assay); format: biochemical; settings: 25° C.
Mouse DHODH, sequence (O35435 whole entry): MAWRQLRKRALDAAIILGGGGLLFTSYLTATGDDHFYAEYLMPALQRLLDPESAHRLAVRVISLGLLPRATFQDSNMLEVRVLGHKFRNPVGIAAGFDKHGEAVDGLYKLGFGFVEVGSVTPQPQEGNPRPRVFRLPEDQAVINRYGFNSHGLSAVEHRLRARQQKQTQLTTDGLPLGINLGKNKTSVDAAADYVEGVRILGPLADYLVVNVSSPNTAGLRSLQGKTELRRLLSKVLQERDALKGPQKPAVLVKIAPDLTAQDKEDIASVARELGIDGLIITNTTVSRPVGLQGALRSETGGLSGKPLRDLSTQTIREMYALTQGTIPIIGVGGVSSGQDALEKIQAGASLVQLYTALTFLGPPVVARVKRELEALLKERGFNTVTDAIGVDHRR
Description: as §1

P. falciparum DHODH = P. falciparum DHODH (Plasmodium falciparum (isolate 3D7), UniProt Q08210); format: biochemical; settings: 25° C., DCIP assay
P. falciparum DHODH, sequence (Q08210 24-569 limits assumed): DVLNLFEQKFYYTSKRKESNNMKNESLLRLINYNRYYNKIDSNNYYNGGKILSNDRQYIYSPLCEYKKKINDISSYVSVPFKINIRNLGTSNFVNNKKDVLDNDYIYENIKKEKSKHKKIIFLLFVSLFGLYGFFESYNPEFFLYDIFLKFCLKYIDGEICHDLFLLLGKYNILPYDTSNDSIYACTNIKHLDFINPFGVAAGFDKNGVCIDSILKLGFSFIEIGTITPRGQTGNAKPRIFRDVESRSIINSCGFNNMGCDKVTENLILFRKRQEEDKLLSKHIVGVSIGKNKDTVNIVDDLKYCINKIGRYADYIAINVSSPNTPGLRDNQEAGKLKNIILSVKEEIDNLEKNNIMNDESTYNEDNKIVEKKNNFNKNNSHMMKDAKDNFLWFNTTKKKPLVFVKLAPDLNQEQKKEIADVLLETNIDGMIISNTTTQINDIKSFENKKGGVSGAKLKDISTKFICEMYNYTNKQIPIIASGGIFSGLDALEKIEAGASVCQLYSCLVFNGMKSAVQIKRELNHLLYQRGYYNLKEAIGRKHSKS
Description: Inhibitor stocks (100 mM) were prepared in DMSO in amber bottles. A 3-fold dilution series was generated in DMSO from these stocks and then dispensed into assay buffer via a 1/100 dilution to generate a final concentration range of 0.001-100 μM (1% DMSO final). Data were collected using triplicate technical replicates and where indicated additional biological replicates were collected (the number of biological replicates is provided in parenthesis). IC50's were determined by fitting the data to log (inhibitor) vs. response equation Y=Bottom+(Top−Bottom)/(1+10^((X−Log IC50))) in GraphPad Prism.

[1] = metabolic stability, Human Clint
Dog DHODH [2] = biological target: T1, Dog DHODH (Canis lupus familiaris, UniProt A0A8I3MWX2); settings: read-out: Dog DHODH IC50; 25° C., DCIP assay
T1 sequence (A0A8I3MWX2 1-406): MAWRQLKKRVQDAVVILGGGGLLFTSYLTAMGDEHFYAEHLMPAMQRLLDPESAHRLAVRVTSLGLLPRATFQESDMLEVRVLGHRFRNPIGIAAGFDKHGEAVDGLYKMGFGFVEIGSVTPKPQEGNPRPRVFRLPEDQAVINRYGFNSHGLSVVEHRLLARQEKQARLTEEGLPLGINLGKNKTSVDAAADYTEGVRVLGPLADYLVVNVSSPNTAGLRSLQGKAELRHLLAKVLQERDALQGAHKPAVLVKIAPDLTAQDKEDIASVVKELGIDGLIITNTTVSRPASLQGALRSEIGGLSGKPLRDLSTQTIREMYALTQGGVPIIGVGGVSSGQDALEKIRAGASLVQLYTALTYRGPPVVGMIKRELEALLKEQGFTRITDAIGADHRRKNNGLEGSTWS
Description: as §1

P. vivax DHODH = P. vivax DHODH (Plasmodium vivax, UniProt A5K1N1); experiment: biochemical; format: biochemical
P. vivax DHODH, sequence (A5K1N1 1-572): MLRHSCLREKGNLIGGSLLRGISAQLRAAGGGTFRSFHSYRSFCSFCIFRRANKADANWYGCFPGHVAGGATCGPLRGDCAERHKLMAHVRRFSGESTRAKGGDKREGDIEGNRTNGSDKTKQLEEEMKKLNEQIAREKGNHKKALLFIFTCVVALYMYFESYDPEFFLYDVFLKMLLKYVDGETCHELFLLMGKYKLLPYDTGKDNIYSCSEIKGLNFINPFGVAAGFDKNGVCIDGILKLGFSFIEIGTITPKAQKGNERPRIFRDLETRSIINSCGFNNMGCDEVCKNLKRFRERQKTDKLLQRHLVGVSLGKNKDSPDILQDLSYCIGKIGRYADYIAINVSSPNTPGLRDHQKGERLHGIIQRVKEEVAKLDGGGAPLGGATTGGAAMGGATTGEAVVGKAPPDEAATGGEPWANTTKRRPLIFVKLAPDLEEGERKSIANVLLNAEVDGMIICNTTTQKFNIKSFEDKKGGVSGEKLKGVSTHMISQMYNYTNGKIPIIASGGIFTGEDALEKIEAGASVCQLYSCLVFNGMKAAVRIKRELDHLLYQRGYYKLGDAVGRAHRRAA
Description: as §1

[3] = system: P. vivax clinical isolates; settings: ex vivo, separate study in Indonesia, previously reported; cited from earlier work
[4] = system: parasitized human erythrocytes; experiment: in vivo efficacy in the humanized SCID mouse model; settings: for DOR (day of recrudescence): 50 mg/kg dose b.i.d. for 6 days; for CED90: estimated average blood concentration that induces no net parasite growth
Excerpt: During the study, samples of peripheral blood were taken from mice to measure the concentration of compounds and/or their metabolites.
CED90: estimated average blood concentration that induces no net parasite growth.
DoR was estimated by linear interpolation of % parasitemia the day before the rise to PO and the % parasitemia the day after reaching PO.

[5] = system: P. falciparum clinical isolates; settings: ex vivo, separate study in Indonesia, previously reported; cited from earlier work
Dog DHODH [6] = biological target: T1, Dog DHODH; experiment: biochemical
Description: as §1

physchem = settings: pH 6.5, fassif
P. falciparum 3D7 = experiment: P. falciparum growth and inhibition assay (SYBR Green); format: cell-based; settings: chloroquine-sensitive 3D7 strain, 72 h, albuMAX media
Description: P. falciparum growth and inhibition assays. […] DSMO inhibitor stocks (as above) were diluted in DMSO using a 2 or 3-fold dilution series and then dispensed into media at 10× the final concentrations. A second step into media led to final inhibitor concentrations ranging from 0.001-30 μM and a final DMSO concentration of 0.2%. […] Data were collected using triplicate technical replicates and where indicated additional biological replicates were collected (the number of biological replicates is provided in parenthesis).

[7] = 25° C., DCIP assay, read-out: P. vivax DHODH IC50

Human DHODH, sequence (Q02127 whole entry): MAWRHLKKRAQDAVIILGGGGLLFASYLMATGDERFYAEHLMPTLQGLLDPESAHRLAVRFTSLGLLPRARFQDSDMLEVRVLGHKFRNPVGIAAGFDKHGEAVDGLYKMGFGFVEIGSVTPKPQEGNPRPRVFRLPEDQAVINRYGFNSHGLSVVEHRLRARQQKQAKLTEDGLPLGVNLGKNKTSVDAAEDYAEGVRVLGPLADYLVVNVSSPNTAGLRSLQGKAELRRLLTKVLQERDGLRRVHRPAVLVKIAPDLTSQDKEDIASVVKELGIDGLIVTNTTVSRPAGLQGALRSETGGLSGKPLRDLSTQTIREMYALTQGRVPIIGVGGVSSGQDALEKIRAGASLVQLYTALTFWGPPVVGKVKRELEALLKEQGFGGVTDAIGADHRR

Row | Molecule | IC50 (Human DHODH) | microsomal CLint (in vitro) | IC50 (Rat DHODH) | IC50 (Mouse DHODH) | also measured
1 | Cc1c(C2(c3ccc(C(F)(F)F)nc3)CC2)c[nH]c1C(=O)NC(C)c1cn[nH]c1 (single isomer, unassigned) [Compound 8, N-(1-(1H-pyrazol-4-yl)ethyl)-3-methyl-4-(1-(6-(trifluoromethyl)pyridin-3-yl)cyclopropyl)-1H-pyrrole-2-carboxamide] | > 100 µM | 66 µL/min/mg | – | – | –
2 | Cc1c(Cc2ccc(C(F)(F)F)nc2)c[nH]c1C(=O)NC(C)c1cn[nH]c1 (stereo not drawn) [Compound 32] | > 100 µM | – | > 100 µM | > 100 µM | IC50 (P. falciparum DHODH): 0.047 ± 0.0079 µM; Human Clint [1]: 20 μL/min/mg protein; IC50 (Dog DHODH [2]): > 100 µM; IC50 (P. vivax DHODH; [7]): 0.043 µM; FaSSIF Solubility pH 6.5 5 h (pH 6.5): 34 μg/ml
3 | Cc1cc(C(C)NC(=O)c2[nH]cc(C3(c4ccc(C(F)(F)F)nc4)CC3)c2C)n[nH]1 (single isomer, unassigned) [Compound 11, 3-methyl-N-[1-(5-methyl-1H-pyrazol-3-yl)ethyl]-4-{1-[6-(trifluoromethyl)pyridine-3-yl]cyclopropyl}-1H-pyrrole-2-carboxamide] | > 100 µM | 40 µL/min/mg | – | – | –
4 | Cc1cc(Nc2ccc(S(F)(F)(F)(F)F)cc2)n2nc(C(C)(F)F)nc2n1 [DSM265, 2-(1,1-difluoroethyl)-5-methyl-N-[4-(pentafluoro-λ^6-sulfanyl)phenyl]-[1,2,4]triazolo[1,5-a]pyrimidin-7-amine, reference compound] | – | < 7 µL/min/mg | – | – | EC50 [3]: 0.92 µM; DOR (day of recrudescence) ([4]; SCID mouse): 21; AUCED90 ([4]; SCID mouse, b.i.d. for 6 days): 35.4 μM · h/day; ED90 ([4]; SCID mouse, b.i.d. for 6 days, clears 90% of parasites 24 h post final dose on day 7): 16.7 mg/kg; CED90 ([4]; SCID mouse, b.i.d. for 6 days): 1.48 µM/day; FaSSIF Solubility pH 6.5 5 h (FaSSIF, pH 6.5, 5 h): 5.1 μg/ml; EC50 [5]: 0.19 µM
5 | Cc1c(C2(c3ccc(C(F)(F)F)nc3)CC2)c[nH]c1C(=O)NC(C)c1c[nH]cn1 (single isomer, unassigned) [Compound 20, N-(1-(1H-imidazol-4-yl)ethyl)-3-methyl-4-(1-(6-(trifluoromethyl)pyridin-3-yl)cyclopropyl)-1H-pyrrole-2-carboxamide] | > 100 µM | 35 µL/min/mg | – | – | –
6 | Cc1c(Cc2ccc(C(F)(F)F)nc2)c[nH]c1C(=O)NC(C)c1cnn(C)c1 (single isomer, unassigned) [Compound 35, 3-methyl-N-(1-(1-methyl-1H-pyrazol-4-yl)ethyl)-4-((6-(trifluoromethyl)pyridin-3-yl)methyl)-1 H-pyrrole-2-carboxamide] | > 100 µM | – | > 100 µM | > 100 µM | IC50 (Dog DHODH [6]): > 100 µM; IC50 (P. vivax DHODH): 0.036 µM; solubility (physchem): 60 µg/mL (≈ 153 µM)
7 | N-(1-(1H-1,2,4-triazol-3-yl) ethyl)-4-(3-fluoro-4-(trifluoromethyl)benzyl)-3-methyl-1H-pyrrole-2-carboxamide [Compound 5] | > 100 µM | – | – | – | IC50 (P. falciparum DHODH): 0.11 µM; IC50 (P. vivax DHODH; [7]): 0.061 µM; EC50 (P. falciparum 3D7): 0.039 µM
8 | Cc1c(C2(c3ccc(C(F)(F)F)nc3)CC2)c[nH]c1C(=O)NC(C)c1cc(C(N)=O)[nH]n1 (stereo not drawn) [Compound 14] | > 100 µM | – | > 100 µM | > 100 µM | IC50 (P. falciparum DHODH): 0.14 ± 0.057 µM; IC50 (Dog DHODH [2]): > 100 µM; IC50 (P. vivax DHODH; [7]): 0.17 µM
9 | Cc1cc(C(C)NC(=O)c2[nH]cc(Cc3ccc(C(F)(F)F)nc3)c2C)no1 (single isomer, unassigned) [Compound 29, 3-methyl-N-(1-(5-methylisoxazol-3-yl)ethyl)-4-((6-(trifluoromethyl)pyridin-3-yl)methyl)-1H-pyrrole-2-carboxamide] | > 100 µM | 29 µL/min/mg | > 100 µM | > 100 µM | IC50 (Dog DHODH [6]): > 100 µM
10 | Cc1c(C2(c3ccc(C(F)(F)F)nc3)CC2)c[nH]c1C(=O)NC(C)c1nc[nH]n1 (single isomer, unassigned) [Compound 2, 3-methyl-N-[1-(1H-1,2,4-triazol-3-yl)ethyl]-4-{1-[6-(trifluoromethyl)pyridin-3-yl]cyclopropyl}-1H-pyrrole-2-carboxamide] | > 100 µM | 11 µL/min/mg | > 100 µM | > 100 µM | IC50 (Dog DHODH [6]): > 100 µM; DOR (day of recrudescence) ([4]; SCID mouse): 22; AUCED90 ([4]; SCID mouse, b.i.d. for 6 days): 35.6 μM · h/day; CED90 ([4]; SCID mouse, b.i.d. for 6 days): 1.48 µM/day; ED90 ([4]; mouse, in vivo): 25.6 mg/kg
11 | Cc1c(C2(c3ccc(C(F)(F)F)nc3)CC2)c[nH]c1C(=O)NC(C)c1cc(C#N)[nH]n1 (single isomer, unassigned) [Compound 17, N-(1-(5-cyano-1H-pyrazol-3-yl)ethyl)-3-methyl-4-(1-(6-(trifluoromethyl)pyridin-3-yl)cyclopropyl)-1H-pyrrole-2-carboxamide] | > 100 µM | 16 µL/min/mg | – | – | –
